{
  "source": "patent US20100261666A1",
  "about": "“COMPOSITIONS AND METHODS FOR THE TREATMENT OF MYOCARDIAL DYSFUNCTION ASSOCIATED WITH SIRS OR SEPSIS” (THE BOARD OF TRUSTEES OF THE UNIVERSITY OF ILLINOIS, priority 2009, published 2010)",
  "tested_on": "rat isolated hearts",
  "assay": "Langendorff rat isolated heart procedure: left ventricular function and coronary flow",
  "assay_type": "in vivo",
  "details": "for Coronary flow Baseline / Coronary flow 30 min / Coronary flow 60 min / Coronary flow 90 min / Coronary flow 120 min / Coronary flow 150 min: mean ± SEM",
  "description": "Male Sprague Dawley, virus-free rats (Harlan) were used in each of the examples presented herein. After arrival and a brief acclimation (72 hours minimum), animals were randomized into control or experimental groups. The control and experimental protocols (Table 1) and experimental group treatments (Table 2) are described below.\nRat isolated heart experiments were performed via Langendorff method. […] CON hearts received vehicle (IP sterile water). […] Heparin was allowed to circulate for 60 seconds at which time a thoracotomy was performed to expose the heart. The heart was quickly removed, placed in ice cold Krebs-Ringers bicarbonate buffer (KRB, described below) and weighed. The ascending aorta was rapidly cannulated and the heart was attached, via the cannula, to the perfusion apparatus. The hearts were perfused with a modified KRB containing (102 mM NaCl, 4.75 mM KCl, 1.20 mM KH2PO4, 1.18 mM MgSO4, 22.75 mM NaHCO3, 11.50 mM Glucose, 4.96 mM Na-Pyruvate, 5.40 mM Na-Fumarate and 1 mM CaCl2), at a temperature of 37.0° C., and pH 7.4 as maintained by vigorous bubbling with 95%/5% O2/CO2.\nAt all times, hearts were perfused with KRB at a pressure of 72-78 mmHg set by the height of the water-jacketed reservoir. The left atrium of the heart was then removed, just above the left atrio-ventricular valve. A latex balloon was used to measure left ventricular pressure as an index of cardiac performance. The balloon was constructed by filling the reservoir tip of a latex condom with degassed water. PE-50 tubing, pre-filled with degassed water and attached to a stopcock/Hamilton screw-top syringe assembly, was flanged and placed into the tip of the condom. Surgical silk (5-0) was used to gather the condom tip around the flanged end of the tubing and form a seal, at which time the excess latex was removed.\nThe balloon/stopcock assembly was attached to a pressure transducer (Spectramed-Statham) and inserted into the left ventricle to record cardiac performance data via Windaq (DATAQ, CA). Two platinum electrodes, connected to a electrical stimulator (Grass Model 92C), were placed at the lateral edges of the right atria in order to pace the heart at 300 BPM using a voltage 10% greater than that required to capture rhythm. The volume in the latex balloon was increased to produce a left ventricular diastolic pressure (LVdiaP) of 10.0 mmHg.\nThe heart was then perfused normally for 30 minutes, a period designated as the equilibration phase. During this phase of perfusion hearts had to maintain a LVdiaP of 10.0±2.0 mmHg to be included in the study. At the end of thirty minutes, baseline measurements of coronary flow and left ventricular pressure were made. This time point was designated as 0 minutes. At this time, hearts receiving LPS (10 μg/mL/min) were infused via injection port/stop cock assembly, into the KRB perfusion stream, just above the aortic cannula for a total infusion time of 60 minutes. Hearts not receiving LPS were infused with vehicle (sterile water, 1.25% coronary flow (mL)·min). At 60 minutes, infusion was halted and normal KRB perfusion continued for 90 minutes (total experimental time post-equilibration=150 minutes).\nMeasurements of coronary flow and left ventricular pressure were taken every 30 minutes starting at 0 minutes. At the termination of the experiment, the left ventricle was rapidly excised from the whole heart, flash frozen in liquid nitrogen and stored at −80.0° C. for further analysis.\nStatistical analysis was performed on data generated from these experimental protocols using a one-way analysis of variance (one-way ANOVA) with pair wise comparisons (Fisher Least Significant Difference test (LSD)). Data is presented herein as mean±standard error of the mean (SEM).\nThe Fisher LSD was used to determine whether 30 and 150 min values differed from baseline values. In addition, changes from baseline values (e.g., 30 or 150 minute value−respective baseline value) were compared among groups.",
  "key": {"[1]": {"details": "LPS infusion 10 μg/mL/min (-LPS group)"}, "[2]": {"details": "LPS infusion, 30 minutes, change from baseline, mean±SEM"}},
  "data": [
    {"smiles": "Oc1ncnc2[nH]ncc12", "note": "[ALO, allopurinol]", "values": [
      {"measurement": "Coronary flow Baseline", "setting": "[1]", "result": "24.1 ± 1.3", "unit": "mL/min"},
      {"measurement": "Coronary flow 30 min", "setting": "LPS infusion (-LPS group)", "result": "24.2 ± 1.1", "unit": "mL/min"},
      {"measurement": "Coronary flow 60 min", "setting": "LPS infusion (-LPS group)", "result": "24.7 ± 1.4", "unit": "mL/min"},
      {"measurement": "Coronary flow 90 min", "setting": "LPS infusion (-LPS group)", "result": "24.5 ± 1.4", "unit": "mL/min"},
      {"measurement": "Coronary flow 120 min", "setting": "LPS infusion (-LPS group)", "result": "23.4 ± 1.7", "unit": "mL/min"},
      {"measurement": "Coronary flow 150 min", "setting": "LPS infusion (-LPS group)", "result": "22.5 ± 1.7", "unit": "mL/min"},
      {"measurement": "+dP/dt compared to respective baseline", "setting": "LPS infusion, 30 minutes", "result": "significantly greater"},
      {"measurement": "LV developed pressure compared to respective baseline", "setting": "LPS infusion, 30 minutes", "result": "significantly greater"},
      {"measurement": "LV diastolic pressure compared to respective baseline", "setting": "LPS infusion, 30 minutes", "result": "significantly decreased"},
      {"measurement": "increase in LV developed pressure compared to LPS group", "setting": "LPS infusion, 30 minutes", "result": "of a similar magnitude"},
      {"measurement": "increase in LV systolic pressure compared to LPS group", "setting": "LPS infusion, 30 minutes", "result": "of a similar magnitude"},
      {"measurement": "increase in −dP/dt compared to LPS group", "setting": "LPS infusion, 30 minutes", "result": "similar"},
      {"measurement": "+dP/dt compared to LPS hearts", "setting": "LPS infusion, 150 minutes", "result": "did not statistically change"},
      {"measurement": "+dP/dt compared to respective baseline", "setting": "LPS infusion, 150 minutes", "result": "significantly decreased"},
      {"measurement": "LV developed pressure compared to LPS hearts", "setting": "LPS infusion, 150 minutes", "result": "of a similar magnitude"},
      {"measurement": "LV developed pressure compared to respective baseline", "setting": "LPS infusion, 150 minutes", "result": "significantly decreased"},
      {"measurement": "LV diastolic pressure (LPS-induced increase) compared to LPS hearts", "setting": "LPS infusion, 150 minutes", "result": "attenuation"},
      {"measurement": "LV systolic pressure compared to respective baseline", "setting": "LPS infusion, 150 minutes", "result": "significantly decreased"},
      {"measurement": "−dP/dt compared to LPS alone / among groups", "setting": "LPS infusion, 150 minutes", "result": "did not significantly affect"},
      {"measurement": "−dP/dt compared to respective baseline", "setting": "LPS infusion, 150 minutes", "result": "significantly decreased"},
      {"measurement": "Coronary flow 30 min", "setting": "vehicle infusion (-CON group)", "result": "25.9 ± 1.8", "unit": "mL/min"},
      {"measurement": "Coronary flow 60 min", "setting": "vehicle infusion (-CON group)", "result": "25.1 ± 1.9", "unit": "mL/min"},
      {"measurement": "Coronary flow 90 min", "setting": "vehicle infusion (-CON group)", "result": "24.7 ± 1.9", "unit": "mL/min"},
      {"measurement": "Coronary flow 120 min", "setting": "vehicle infusion (-CON group)", "result": "24.1 ± 1.6", "unit": "mL/min"},
      {"measurement": "Coronary flow 150 min", "setting": "vehicle infusion (-CON group)", "result": "22.6 ± 1.4", "unit": "mL/min"},
      {"measurement": "Coronary flow Baseline", "setting": "vehicle infusion (-CON group)", "result": "25.4 ± 2.1", "unit": "mL/min"},
      {"measurement": "LV diastolic pressure compared to respective baseline", "setting": "vehicle infusion, 30 minutes", "result": "No changes"},
      {"measurement": "LV developed pressure compared to respective baseline", "setting": "vehicle infusion, 150 minutes", "result": "No changes"},
      {"measurement": "LV diastolic pressure compared to respective baseline", "setting": "vehicle infusion, 150 minutes", "result": "remained unchanged"},
      {"measurement": "LV systolic pressure compared to respective baseline", "setting": "vehicle infusion, 150 minutes", "result": "no change"},
      {"measurement": "−dP/dt compared to respective baseline", "setting": "vehicle infusion, 150 minutes", "result": "remained unchanged"}
    ]},
    {"smiles": "OC[C@H]1O[C@@H](n2cnc3c2N=CNCC3O)CC1O", "note": "(stereo in doubt) [dCF, 2′-deoxycoformycin]", "values": [
      {"measurement": "Coronary flow Baseline", "setting": "[1]", "result": "27.4 ± 1.7", "unit": "mL/min"},
      {"measurement": "Coronary flow 30 min", "setting": "LPS infusion (-LPS group)", "result": "28.7 ± 1.2", "unit": "mL/min"},
      {"measurement": "Coronary flow 60 min", "setting": "LPS infusion (-LPS group)", "result": "27.8 ± 1.2", "unit": "mL/min"},
      {"measurement": "Coronary flow 90 min", "setting": "LPS infusion (-LPS group)", "result": "25.7 ± 1.0", "unit": "mL/min"},
      {"measurement": "Coronary flow 120 min", "setting": "LPS infusion (-LPS group)", "result": "22.4 ± 1.1", "unit": "mL/min"},
      {"measurement": "Coronary flow 150 min", "setting": "LPS infusion (-LPS group)", "result": "19.6 ± 0.8", "unit": "mL/min"},
      {"measurement": "+dP/dt compared to respective baseline", "setting": "LPS infusion, 30 minutes", "result": "significantly greater"},
      {"measurement": "LV developed pressure compared to respective baseline", "setting": "LPS infusion, 30 minutes", "result": "significantly increased"},
      {"measurement": "LV diastolic pressure compared to respective baseline", "setting": "LPS infusion, 30 minutes", "result": "significantly lower"},
      {"measurement": "LV systolic pressure compared to respective baseline", "setting": "LPS infusion, 30 minutes", "result": "significantly greater"},
      {"measurement": "increase in LV developed pressure compared to LPS group", "setting": "LPS infusion, 30 minutes", "result": "similar"},
      {"measurement": "increase in LV systolic pressure compared to LPS group", "setting": "LPS infusion, 30 minutes", "result": "similar"},
      {"measurement": "increase in −dP/dt compared to LPS group", "setting": "LPS infusion, 30 minutes", "result": "similar"},
      {"measurement": "−dP/dt compared to respective baseline", "setting": "LPS infusion, 30 minutes", "result": "significantly greater"},
      {"measurement": "increase in LV developed pressure", "setting": "[2]", "result": "20.1±3.2", "unit": "mmHg"},
      {"measurement": "increase in LV systolic pressure", "setting": "[2]", "result": "17.1±3.0", "unit": "mmHg"},
      {"measurement": "+dP/dt compared to CON", "setting": "LPS infusion, 150 minutes", "result": "No differences"},
      {"measurement": "+dP/dt compared to LPS hearts", "setting": "LPS infusion, 150 minutes", "result": "improved"},
      {"measurement": "LV developed pressure compared to CON", "setting": "LPS infusion, 150 minutes", "result": "No differences"},
      {"measurement": "LV developed pressure compared to LPS hearts", "setting": "LPS infusion, 150 minutes", "result": "improved"},
      {"measurement": "LV developed pressure compared to respective baseline", "setting": "LPS infusion, 150 minutes", "result": "not significantly different"},
      {"measurement": "LV diastolic pressure (LPS-induced increase) compared to LPS hearts", "setting": "LPS infusion, 150 minutes", "result": "improved"},
      {"measurement": "LV systolic pressure compared to LPS group / among groups", "setting": "LPS infusion, 150 minutes", "result": "no significant differences"},
      {"measurement": "−dP/dt compared to LPS alone / among groups", "setting": "LPS infusion, 150 minutes", "result": "No significant differences"},
      {"measurement": "−dP/dt compared to respective baseline", "setting": "LPS infusion, 150 minutes", "result": "significantly lower"},
      {"measurement": "Coronary flow 30 min", "setting": "vehicle infusion (-CON group)", "result": "27.7 ± 1.9", "unit": "mL/min"},
      {"measurement": "Coronary flow 60 min", "setting": "vehicle infusion (-CON group)", "result": "26.3 ± 2.1", "unit": "mL/min"},
      {"measurement": "Coronary flow 90 min", "setting": "vehicle infusion (-CON group)", "result": "24.5 ± 1.8", "unit": "mL/min"},
      {"measurement": "Coronary flow 120 min", "setting": "vehicle infusion (-CON group)", "result": "21.5 ± 1.9", "unit": "mL/min"},
      {"measurement": "Coronary flow 150 min", "setting": "vehicle infusion (-CON group)", "result": "19.8 ± 2.0", "unit": "mL/min"},
      {"measurement": "Coronary flow Baseline", "setting": "vehicle infusion (-CON group)", "result": "28.1 ± 1.9", "unit": "mL/min"},
      {"measurement": "+dP/dt compared to respective baseline", "setting": "vehicle infusion, 30 minutes", "result": "no differences"},
      {"measurement": "LV diastolic pressure compared to respective baseline", "setting": "vehicle infusion, 30 minutes", "result": "significantly lower"},
      {"measurement": "−dP/dt compared to respective baseline", "setting": "vehicle infusion, 30 minutes", "result": "no differences"},
      {"measurement": "LV developed pressure compared to respective baseline", "setting": "vehicle infusion, 150 minutes", "result": "not significantly different"},
      {"measurement": "−dP/dt compared to respective baseline", "setting": "vehicle infusion, 150 minutes", "result": "significantly lower"}
    ]}
  ]
}
